Source: a melting point compilation (Tetko et al.; mined from patent text by program, amines drawn as free bases though some values may be those of a salt)

Structure (SMILES) | melting point [°C]
COC(=O)c1c(F)cc(OCCNC(=O)C2Cc3ccccc3N2S(=O)(=O)c2ccc(-c3ccc(F)cc3OC)cc2)cc1F (configuration not stated) | 65 to 76
Cc1ccc(-n2c(=O)n(OCc3ccccc3)c(=O)c3cc(F)c(Cl)nc32)cc1 | 218 to 219
O=C(c1cc2ccc(F)cc2[nH]1)C12CC3CC(CC(C3)C1)C2 | 242 to 244
CC(C)(C(=O)O)c1ccc(C(=O)Nc2cn3cc(-c4ccoc4)ccc3n2)cc1 | 307 to 309
CC(=O)NCc1ccc2ccn(C3CCN(CCCCc4ccc(F)cc4)CC3)c2c1 | 59 to 60
CCCCCCCCCCCCc1ccc(S(=O)(=O)Nc2nnc(S(N)(=O)=O)s2)cc1 | 249 to 250
O=Cc1ccc(-c2ccnc(-c3ccc(OC(F)(F)F)cc3)n2)cc1 | 70 to 73
COC(=O)C1=C(C)NC(C)=C(c2nc(CN(C)Cc3ccccc3)no2)C1c1cccc([N+](=O)[O-])c1 (configuration not stated) | 127 to 128
O=C1CCC(=O)N1c1nc(Nc2ccc(O)c(Cl)c2)cc(-c2ccccc2)n1 | 274 to 276
COc1ccc2c3c([nH]c2c1)C(=S)C(CC1CCN(C(=O)OC(C)(C)C)CC1)C3 (configuration not stated) | 188 to 189
CN1Cc2c(C#Cc3ccccc3)ncn2-c2cccc(Br)c2C1=O | 207 to 209
CC(C(=O)O)c1ccc(-c2ccc(F)cc2F)cc1 (configuration not stated) | 110 to 113
N#Cc1ccc2nc[nH]c(=O)c2c1 | 294 to 300
Cc1ccc2nc(NC(=O)c3ccc(C(C)(C)CCC(=O)O)cc3)cn2c1 | 280 to 282
O=C(OCCOCCOCCO)C(=O)c1ccc(OCCOc2ccc3ccccc3c2)cc1 | 70 to 71
O=C(O)c1cc([N+](=O)[O-])cc2ccc(-c3ccccc3)nc12 | 268 to 269
CCOC(=O)c1cc(O)c2cc3c(O)cc(C(=O)OCC)nc3c(N3CCCCCC3)c2n1 | 301 to 302
Nc1c(SC(F)(F)F)ncn1-c1c(Cl)cc(C(F)(F)F)cc1Cl | 134
CCOC(=O)c1ccccc1N(CC(=O)N(C)c1ccccc1)C(=O)CN1C(=O)c2ccccc2C1=O | 202
C#CCSc1nc(-c2ccccc2)no1 | 39.4
COc1ccccc1C1(O)c2cc(NC(=O)CC(C)(C)C)c(C)c(C)c2OC1(C)C (configuration not stated) | 168 to 169
COc1ccc(C(=O)NCCN(C)C)cc1 | 53 to 54
COc1cc(CNC(=O)c2nc3cnn(CCOc4ccc(C(=O)O)cc4)c3c(=O)[nH]2)ccc1F | 228 to 230
COC(=O)C1OC(OC(=N)C(Cl)(Cl)Cl)C(OC(C)=O)C(OC(C)=O)C1OC(C)=O (configuration not stated) | 108
CN1C(=O)C(C(=O)Nc2ccc(Cl)cc2)S(=O)(=O)c2ccccc21 (configuration not stated) | 220 to 222

Structure (SMILES) | melting point [°C]
Cc1c(NC(=O)CC(C)(C)C)c(C)c2c(c1-c1ccc(N(C)C)nc1)OCC2c1ccc(C(C)C)cc1 (configuration not stated) | 217 to 220
CCCS(=O)c1ccc([N+](=O)[O-])c(N)c1 (configuration not stated) | 128 to 130
CC(C)(O)Cn1c(CO)nc2c(N)nc3cc(-c4ccc(Cl)c(Cl)c4)cnc3c21 | 254 to 256
COc1ccc(C(Sc2cc(Oc3cccc(C)c3)ccc2N)C(O)C(=O)O)cc1 (configuration not stated) | 163 to 165
CCOC(=O)c1ncc2[nH]c3ccc(C4CCCCC4)cc3c2c1C | 191 to 193
O=Cc1ccc(S(=O)(=O)CCCl)cc1Cl | 117 to 119
CCN(CC)CCCN(Cc1ccc(COc2cccc3c2CN(C2CCC(=O)NC2=O)C3=O)cc1)C(=O)OC(C)(C)C (configuration not stated) | 140 to 142
C=CCNC(=O)C1CCc2cc(Oc3ccccc3)ccc2O1 (configuration not stated) | 104 to 106
O=C(OCc1ccccc1)c1cc(Cl)nc(Cl)c1 | 39 to 41
CCOC(=O)c1ccc(-c2[nH]nc3c2C(=O)c2c(NC(=O)N(NC)NC)cccc2-3)s1 | 252
COc1ccc(C=CC(=O)c2c(OC)cc(OC)cc2OC(=O)c2cccnc2)cc1 | 55 to 60
O=C(NCc1ccsc1)N(O)CCO | 114 to 115
O=C(Nc1ccc(CNc2nc(N3CCC3)nc3ccccc23)cc1)c1ccc(F)cc1 | 249
Cc1ccc(CC2CCN(C(=O)NC(=O)c3ccc(OCc4ccccc4)cc3)CC2)cc1 | 204 to 208
Cc1ccc(S(=O)(=O)c2nc(C(N)=O)n[nH]2)cc1 | 148 to 150
NC(=O)CNC(=O)c1cccc(-c2ccc3c(c2)N(c2ccc(Cl)cc2Cl)CC3)c1 | 184 to 186
CNc1cc(NS(=O)(=O)c2ccc(NC(C)=O)cc2)nc(N2CCCC2)n1 | 271 to 274
CCc1nc2c(C)cc(C)nc2n1Cc1cccc(C(=Cc2nnn[nH]2)c2ccccc2)c1 | 187 to 195
CS(=O)(=O)NCCn1c(CCO)nc2c(N)nc3cccnc3c21 | 136 to 138
COc1cc(Oc2cccc(C(F)(F)F)c2)nc(C(=S)Nc2ccccc2)c1 | 126 to 128
C=Cc1c(N)nc(-c2ccc(Cl)c(F)c2F)nc1C(=O)OC | 130 to 132
CC(C)(C)NC(=O)NCC#N | 128 to 132
CC(=O)c1ccc(OCCC2CCN(c3cc(Cl)nnc3Cl)CC2)cc1 | 99 to 100
CC(C)(Cn1c(N)nc2c(N)nc3ccccc3c21)NS(C)(=O)=O | > 230
COc1c(NC(=O)c2ccc(-c3ccc(F)cc3)cc2)ccc2cc(CN3CCCC3)cnc12 | 142 to 144

Structure (SMILES) | melting point [°C]
Cc1cc(=O)c(C(=O)Nc2cccc(C)c2C)c(C)o1 | 174 to 176
OC1c2ccccc2-c2[nH]nc(-c3ccccc3)c21 (configuration not stated) | 269 to 272
C=CCC1C(=O)N(c2ccccc2)N(c2ccccc2)C1=O | 135 to 137
COC(=O)c1ccc2nc3cc(C)sc3c(=O)n2c1 | 215 to 216
CNc1cccc(S(N)(=O)=O)n1 | 124 to 126
O=C1Nc2ccc(-c3cc(F)cc(Br)c3)cc2C(C2CC2)(C2CC2)O1 | 228 to 229
COc1ccc(CNC(=O)C(=O)NCCc2ccccn2)c(OC)c1 | 123 to 124
O=C(O)Cc1ccc(OCCNC(=O)C2Cc3ccccc3N2S(=O)(=O)c2ccc(-c3ccc(Cl)cc3)c(C(F)(F)F)c2)cc1 (configuration not stated) | 92
COC(=O)CCCC(Cl)C1SCC2NC(=O)N(Cc3ccccc3)C21 (configuration not stated) | 141 to 142
O=C(C1CCCc2c1c1ccccc1n2Cc1ccccc1)N1CCCCC1 (configuration not stated) | 249 to 252
CC(=O)NCC1CN(c2ccc(N3CC4CCCN(C(=O)COC(C)=O)C4C3)c(F)c2)C(=O)O1 (configuration not stated) | 113 to 116
Cc1nn(C)c2c1Nc1ccccc1NC2=O | 189 to 190
CCOC(=O)C1CCc2c(sc3nc(CCl)c(Cl)c(-c4ccc(OC)cc4)c23)C1 (configuration not stated) | 113 to 114
COC(=O)c1cc(Cl)c(N=C2NCCN2)c(Cl)c1 | 229 to 231
Cc1noc(NS(=O)(=O)c2cc(Cl)c(Cl)cc2Cl)c1Br | 179 to 182
COc1ccc(C(=O)N2CCCC2=O)cc1OCc1ccccc1 | 92
Cc1nc2c(C=O)cccn2c1C | 145 to 148
Cc1cc(C)c2c(n1)Nc1cc(C)c(C)cc1NC2=O | 264 to 268
CCn1ccc(=O)c2cnc(-c3ccc(O)cc3)nc21 | 320 to 324
CC1=NC(NC(=O)Nc2cccc(C)c2)C(=O)N(CC(=O)NC(C)(C)C)c2c(C)cccc21 (configuration not stated) | 243 to 244
O=C(c1ccc(C2CCCCC2)cc1)N1Cc2ccc(C(=O)C(Cl)(Cl)Cl)n2Cc2ccccc21 | 172 to 174
Clc1cc(-c2cnc3c(c2)N(Cc2c(Cl)cccc2Cl)CCN3)ccn1 | 194
ClCc1coc(-c2ccc(Cl)o2)n1 | 107 to 108
Nc1ncc2ncn([C@H]3C=C[C@@H](O)C3)c2n1 (racemic) | 144 to 147
CCOCN1C(C)=C(C(=O)OC)[C@H](c2cccc([N+](=O)[O-])c2)C(C(=O)OCOC(=O)C(C)(C)C)=C1C | 81 to 82

Structure (SMILES) | melting point [°C]
O=c1nc(-c2cccc(CSc3ccccn3)n2)sc2ccccc12 | 151 to 152
CSc1ccc(-c2coc3ccc(-c4nnc(C)o4)cc23)cc1OC(F)(F)F | 185 to 186
COc1cc2ccn(C(=O)c3ccc(-c4ccccc4)c(C)c3)c2cc1OCCN(C)C | 152 to 154
Nc1ccccc1C(=O)OC1CCN(Cc2ccccc2)CC1 | 87 to 88
Cc1cc(C(C)(O)c2scnc2C)c(C)o1 (configuration not stated) | 100 to 102
O=C(OCCOCCO)c1ccc(O)c(Cl)c1 | 77.5 to 78
CNC(=O)CC1CCN(Cc2cnc3cc(NC(=O)c4ccc(-c5ccc(F)cc5)cc4)c(C)cc3c2)CC1 | 243
CCOc1cc(Br)ccc1C=NNC(=N)NN=Cc1ccc(Br)cc1OCC | 195 to 197
O=C(O)CCn1cccc1Cn1ccnc1 | 127 to 128
CNC(=O)CC(O)(c1ccc(Br)cc1)c1cccnc1 (configuration not stated) | 188 to 191
CC(C)(C)OC(=O)CN(C(=O)CNC(=O)c1ccc(Cl)c(Cl)c1)c1ccccc1 | 95
CC(C)C[C@H](NC(=O)c1cc2ccccc2o1)C(=O)N[C@H]1CC[C@@H](C)N(S(=O)(=O)c2ccccn2)CC1=O | 151 to 153
COC(=O)c1nc(-c2ccc(Cl)c(OC)c2F)c(F)c(NC(C)=O)c1Cl | 175 to 177
COc1cc2[nH]c(C(=O)O)cc(=O)c2c2cccnc12 | 286 to 288
O=C(OCc1ccccc1)N1CCC(NCC(O)Cn2ccnc2[N+](=O)[O-])C(O)C1 (configuration not stated) | 140 to 142
CC(=O)c1c(C)c2c(C)[nH]c(-c3ccccc3)c2[nH]c1=O | 250 to 251
O=C(Nc1ccc(C(=O)N2CC(C(=O)O)Cc3ccccc32)cc1)c1cc(Cl)cc(Cl)c1 (configuration not stated) | 221 to 223
COC(=O)c1c(O)ccn1C | 44 to 46
CCOC(=O)c1sc(N)nc1-c1ccccc1Cl | 162 to 164
COc1ccccc1-c1ncsc1C(=O)O | 170 to 172
CSc1cccc(Oc2ncc(F)cc2C(=O)N[C@@H]2CCCC[C@H]2CO)c1 (relative stereo) | 128 to 129
Cc1ccc(S(=O)(=O)NC(=O)N2C(=O)CN2C(c2ccccc2)c2ccccc2)cc1 | 115 to 123
